Patent US8722849B2, “Polypeptides” (Novo Nordisk A/S, priority 2011, dated 2014)
In brackets after ≈: the same amount, converted by molar mass. Read-outs that look alike come from different tables or passages of the source. Starred links: 1 amine or outer side, 2 acyl side, 3 side chain; linkers in the order of their positions; H or OH if unused. Positions of bridges follow the written chain, without caps; N, C: chain ends. Residues, ends and D or L forms follow the SMILES beside them. Groups on a side chain read outwards from the residue. *: point of attachment. C20 diacid = O=C(O)CCCCCCCCCCCCCCCCCCC(=O)*; C18 diacid = O=C(O)CCCCCCCCCCCCCCCCC(=O)*; γGlu = O=C(O)[C@H](CCC(=O)[*:2])N[*:1]; AEEA = NCCOCCOCC(=O)O

Assays:
[1] = biological target: T1, human amylin receptor (amylin 3(a) receptor: human calcitonin receptor + RAMP-3) (Homo sapiens, UniProt O60896+P30988); assay: Assay (II)a functional CRE-luciferase assay, human amylin receptor; assay type: cell-based; settings: Table 2; BHK amylin 3(a)-receptor/CRE-luc cells
T1 construct: expressed in transfected cells; host or cells: BHK570
T1 sequence (P30988 25-474): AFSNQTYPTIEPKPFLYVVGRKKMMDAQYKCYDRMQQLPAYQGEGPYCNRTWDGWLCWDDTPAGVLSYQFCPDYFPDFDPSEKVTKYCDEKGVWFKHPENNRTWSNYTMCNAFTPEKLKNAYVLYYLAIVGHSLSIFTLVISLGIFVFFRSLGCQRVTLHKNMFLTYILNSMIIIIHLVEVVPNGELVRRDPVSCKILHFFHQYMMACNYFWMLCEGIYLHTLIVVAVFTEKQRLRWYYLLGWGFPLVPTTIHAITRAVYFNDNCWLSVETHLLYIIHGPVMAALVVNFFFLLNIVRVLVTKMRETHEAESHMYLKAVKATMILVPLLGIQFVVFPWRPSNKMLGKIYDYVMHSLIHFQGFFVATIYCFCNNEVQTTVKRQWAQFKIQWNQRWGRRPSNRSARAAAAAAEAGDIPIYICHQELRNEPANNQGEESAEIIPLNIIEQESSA
T1 sequence (O60896 24-148 partner): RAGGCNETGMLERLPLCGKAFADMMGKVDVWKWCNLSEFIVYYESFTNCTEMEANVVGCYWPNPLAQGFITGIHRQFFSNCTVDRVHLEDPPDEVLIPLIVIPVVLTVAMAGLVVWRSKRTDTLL

[2] = Assay (IV) determination of solubility; assay type: physicochemical
Method in brief: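 Polypeptide in water (~500 nmol/ml) mixed 1:1 with 100 mM glycylglycine (pH 3.0–5.0) or bistrispropane (pH 6.0–8.0) buffers. Held 18 hours at room temperature, then centrifuged. Polypeptide remaining in solution quantified by HPLC.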

[3] = biological target: T2, human calcitonin receptor (Homo sapiens, UniProt P30988); assay: Assay (II)a functional CRE-luciferase assay, human calcitonin receptor; assay type: cell-based; settings: Table 7; human calcitonin (CTa) receptor
T2 construct: expressed in transfected cells; host or cells: BHK570
T2 sequence (P30988 25-474): T1 sequence (P30988 25-474)

[4] = biological target: T3, rat amylin 3(a) receptor (rat calcitonin(a) receptor + rat RAMP3) (Rattus norvegicus, UniProt P32214+Q9JJ73); assay: Assay (II)b functional cAMP FlashPlate assay, rat amylin receptor; assay type: cell-based; settings: Table 11
T3 construct: expressed in transfected cells; host or cells: BHK tk'ts 13
T3 sequence (P32214 25-479 isoform P32214-2 limits assumed): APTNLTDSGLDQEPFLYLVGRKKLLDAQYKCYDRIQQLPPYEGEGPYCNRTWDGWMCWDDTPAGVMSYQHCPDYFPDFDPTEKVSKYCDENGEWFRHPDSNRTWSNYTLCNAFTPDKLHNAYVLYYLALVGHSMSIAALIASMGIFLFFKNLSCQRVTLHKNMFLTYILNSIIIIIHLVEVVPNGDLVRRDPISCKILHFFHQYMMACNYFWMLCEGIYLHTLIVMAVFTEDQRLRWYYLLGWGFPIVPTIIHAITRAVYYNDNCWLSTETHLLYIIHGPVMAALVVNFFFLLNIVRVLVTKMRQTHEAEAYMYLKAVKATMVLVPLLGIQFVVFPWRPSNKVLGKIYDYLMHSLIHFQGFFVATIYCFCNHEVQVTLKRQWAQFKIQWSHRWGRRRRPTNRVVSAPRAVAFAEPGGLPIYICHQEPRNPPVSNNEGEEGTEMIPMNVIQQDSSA
T3 sequence (Q9JJ73 23-147 partner): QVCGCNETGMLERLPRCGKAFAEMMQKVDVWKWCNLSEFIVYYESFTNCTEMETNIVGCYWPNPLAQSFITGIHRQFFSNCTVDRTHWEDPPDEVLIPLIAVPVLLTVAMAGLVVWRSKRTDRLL
Method in brief: (§1)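 BHK tk'ts 13 cells transiently transfected with rat calcitonin(a) receptor, alone or with rat RAMP3 (amylin 3(a)), were stimulated 24 hours later with sample for 30 min in buffer containing IBMX. cAMP measured by competitive radioactive FlashPlate assay, scintillation read after 3 h detection incubation.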

[5] = biological target: T4, rat calcitonin (a) receptor (Rattus norvegicus, UniProt P32214); assay: Assay (II)b functional cAMP FlashPlate assay, rat calcitonin receptor; assay type: cell-based; settings: Table 11; read-out: CTa receptor rat EC50
T4 construct: expressed in transfected cells; host or cells: BHK tk'ts 13
T4 sequence (P32214 25-479 isoform P32214-2 limits assumed): T3 sequence (P32214 25-479 isoform P32214-2 limits assumed)
Method in brief: as §1

[6] = bistrispropane buffer, pH 6, pH 6.0, read-out: Solubility pH 6.0
[7] = bistrispropane buffer, pH 6.5, pH 6.5, read-out: Solubility pH 6.5
[8] = bistrispropane buffer, pH 7, pH 7.0, 18 hours at room temperature, Table 3, read-out: Solubility pH 7.0
[9] = bistrispropane buffer, pH 7, pH 7.0, Table 8, read-out: Solubility pH 7.0
[10] = bistrispropane buffer, pH 7, pH 7.0, read-out: Solubility pH 7.0
[11] = bistrispropane buffer, pH 7.5, pH 7.5, read-out: Solubility pH 7.5
[12] = bistrispropane buffer, pH 8, pH 8.0, read-out: Solubility pH 8.0
[13] = glycylglycine buffer, pH 3, pH 3.0, read-out: Solubility pH 3.0
[14] = glycylglycine buffer, pH 4, pH 4.0, 18 hours at room temperature, Table 2, read-out: Solubility pH 4.0
[15] = glycylglycine buffer, pH 4, pH 4.0, read-out: Solubility pH 4.0
[16] = glycylglycine buffer, pH 5, pH 5.0, read-out: Solubility pH 5.0

EC50 [1] [nM] | solubility at 18 h [2, 6] [µM] | solubility at 18 h [2, 7] [µM] | solubility at 18 h [2, 8] [µM] | solubility at 18 h [2, 9] [µM] | solubility at 18 h [2, 10] [µM] | solubility at 18 h [2, 11] [µM] | solubility at 18 h [2, 12] [µM] | solubility at 18 h [2, 13] [µM] | solubility at 18 h [2, 14] [µM] | solubility at 18 h [2, 15] [µM] | solubility at 18 h [2, 16] [µM] | EC50 [3] [nM] | EC50 [4] [nM] | EC50 [5] [nM] | Compound
0.217 | > 200 | > 200 | 176 (≈ 781 µg/mL) | 176 (≈ 781 µg/mL) | 176 (≈ 781 µg/mL) | 96 (≈ 426 µg/mL) | 89 (≈ 395 µg/mL) | > 200 | > 200 | > 200 | > 200 | 0.342 | 1.33 | 5.35 | CC(C)C[C@H](NC(=O)[C@H](CCCNC(=N)N)NC(=O)[C@H](CCC(N)=O)NC(=O)[C@@H](NC(=O)[C@H](C)NC(=O)[C@@H]1CSSC[C@H](NC(=O)[C@H](CCCCN)NC(=O)CC[C@H](NC(=O)CCCCCCCCCCCCCCCCCCC(=O)O)C(=O)O)C(=O)N[C@@H](CC(N)=O)C(=O)N[C@@H]([C@@H](C)O)C(=O)N[C@@H](C)C(=O)N[C@@H]([C@@H](C)O)C(=O)N1)[C@@H](C)O)C(=O)N[C@@H](C)C(=O)N[C@@H](CCC(=O)O)C(=O)N[C@@H](Cc1ccccc1)C(=O)N[C@@H](CC(C)C)C(=O)N[C@@H](CCCNC(=N)N)C(=O)N[C@@H](Cc1c[nH]cn1)C(=O)N[C@@H](CO)C(=O)N[C@@H](CO)C(=O)N[C@@H](CC(N)=O)C(=O)N[C@@H](CC(N)=O)C(=O)N[C@@H](Cc1ccccc1)C(=O)NCC(=O)N[C@@H](C)C(=O)N1CCC[C@H]1C(=O)N[C@@H](CC(C)C)C(=O)N[C@@H](CO)C(=O)N[C@@H](CO)C(=O)N[C@H](C(=O)N[C@@H](CC(N)=O)C(=O)N[C@H](C(=O)NCC(=O)N[C@@H](CO)C(=O)N[C@@H](Cc1c[nH]cn1)C(=O)N[C@H](C(=O)N[C@@H](Cc1ccc(O)cc1)C(N)=O)[C@@H](C)O)C(C)C)[C@@H](C)O [Example 65, N-alpha-[(S)-4-Carboxy-4-(19-carboxynonadecanoylamino)butyryl]-[Glu14,Arg17,Ala25,Pro26,Ser28,Ser29,His35]-pramlintide] ({C20 diacid-γGlu}-KCNTATCATQRLAEFLRHSSNNFGAPLSSTNVGSHTY-NH2; disulfide 2-7 (inferred); C-terminus assumed)
0.182 | > 200 | 155 (≈ 716 µg/mL) | – | – | 46 (≈ 212 µg/mL) | 77 (≈ 355 µg/mL) | 144 (≈ 665 µg/mL) | > 200 | > 200 | > 200 | > 200 | 0.21 | 0.305 | 0.656 | CC[C@H](C)[C@H](NC(=O)[C@@H]1CCCN1C(=O)CNC(=O)[C@H](Cc1ccccc1)NC(=O)[C@H](CC(N)=O)NC(=O)[C@H](CC(N)=O)NC(=O)[C@H](CO)NC(=O)[C@H](CO)NC(=O)[C@H](Cc1c[nH]cn1)NC(=O)[C@H](Cc1c[nH]cn1)NC(=O)[C@H](CC(C)C)NC(=O)[C@H](Cc1ccccc1)NC(=O)[C@H](CCC(=O)O)NC(=O)[C@H](C)NC(=O)[C@H](CC(C)C)NC(=O)[C@H](CCCNC(=N)N)NC(=O)[C@H](CCC(N)=O)NC(=O)[C@@H](NC(=O)[C@H](C)NC(=O)[C@@H]1CSSC[C@H](NC(=O)[C@H](CCCCN)NC(=O)[C@H](Cc2c[nH]cn2)NC(=O)CC[C@H](NC(=O)CCCCCCCCCCCCCCCCCCC(=O)O)C(=O)O)C(=O)N[C@@H](CC(N)=O)C(=O)N[C@@H]([C@@H](C)O)C(=O)N[C@@H](C)C(=O)N[C@@H]([C@@H](C)O)C(=O)N1)[C@@H](C)O)C(=O)N[C@@H](CC(C)C)C(=O)N1CCC[C@H]1C(=O)N1CCC[C@H]1C(=O)N[C@H](C(=O)N[C@@H](CC(N)=O)C(=O)N[C@H](C(=O)NCC(=O)N[C@@H](CO)C(=O)N[C@@H](Cc1c[nH]cn1)C(=O)N[C@H](C(=O)N[C@@H](Cc1ccc(O)cc1)C(N)=O)[C@@H](C)O)C(C)C)[C@@H](C)O [Example 66, N-alpha-[(S)-4-Carboxy-4-(19-carboxynonadecanoylamino)butyryl]-His-[Glu14,His17,His35]-pramlintide] ({C20 diacid-γGlu}-HKCNTATCATQRLAEFLHHSSNNFGPILPPTNVGSHTY-NH2; disulfide 3-8 (inferred); C-terminus assumed)
0.0385 | > 200 | > 200 | 155 (≈ 736 µg/mL) | 155 (≈ 736 µg/mL) | 155 (≈ 736 µg/mL) | 169 (≈ 803 µg/mL) | > 200 | > 200 | > 200 | > 200 | > 200 | 0.045 | 0.052 | 0.167 | CC[C@H](C)[C@H](NC(=O)[C@H](CCCCNC(=O)COCCOCCNC(=O)COCCOCCNC(=O)CC[C@H](NC(=O)CCCCCCCCCCCCCCCCC(=O)O)C(=O)O)NC(=O)CNC(=O)[C@H](Cc1ccccc1)NC(=O)[C@H](CC(N)=O)NC(=O)[C@H](CC(N)=O)NC(=O)[C@H](CO)NC(=O)[C@H](CO)NC(=O)[C@H](Cc1c[nH]cn1)NC(=O)[C@H](Cc1c[nH]cn1)NC(=O)[C@H](CC(C)C)NC(=O)[C@H](Cc1ccccc1)NC(=O)[C@H](CCC(=O)O)NC(=O)[C@H](C)NC(=O)[C@H](CC(C)C)NC(=O)[C@H](CCCNC(=N)N)NC(=O)[C@H](CCC(N)=O)NC(=O)[C@@H](NC(=O)[C@H](C)NC(=O)[C@@H]1CSSC[C@H](NC(=O)[C@@H](N)CCCCN)C(=O)N[C@@H](CC(N)=O)C(=O)N[C@@H]([C@@H](C)O)C(=O)N[C@@H](C)C(=O)N[C@@H]([C@@H](C)O)C(=O)N1)[C@@H](C)O)C(=O)N[C@@H](CC(C)C)C(=O)N1CCC[C@H]1C(=O)N1CCC[C@H]1C(=O)N[C@H](C(=O)N[C@@H](CC(N)=O)C(=O)N[C@H](C(=O)NCC(=O)N[C@@H](CO)C(=O)N[C@@H](CC(N)=O)C(=O)N[C@H](C(=O)N[C@@H](Cc1ccc(O)cc1)C(N)=O)[C@@H](C)O)C(C)C)[C@@H](C)O [Example 73, N-epsilon25-[2-(2-{2-[2-(2-{2-[(S)-4-Carboxy-4-(17-carboxyheptadecanoylamino)butyrylamino]ethoxy}ethoxy)acetylamino]ethoxy}ethoxy)acetyl]-[Glu14,His17,Lys25]-pramlintide] (H-KCNTATCATQRLAEFLHHSSNNFGK([AEEA-AEEA-γGlu-C18 diacid])ILPPTNVGSNTY-NH2; disulfide 2-7 (inferred); N-terminus and C-terminus assumed)
